Read-outs that look alike come from different tables or passages of the source.
Experiments:
CRTH2 = CRTH2 (Homo sapiens (Human), UniProt Q9Y5Y4); test: CRTH2 receptor binding inhibitory activity ([3H]-PGD2 displacement, membranes of CRTH2-expressing K562 cell); details: [3H]-PGD2 displacement, membrane of CRTH2-expressing K562 cell, read-out: Ki
How it was run: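 Incubation ran 60 min at room temperature using 20 μg/well membrane from CRTH2-expressing K562 cells in pH 7.4 Tris/HCl (50 mM) with 10 mM MgCl2.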

Human DP1 receptor = Human DP1 receptor (Homo sapiens (Human), UniProt Q13258); test: Human DP1 inhibitory activity in DP1-expressing cell (PGD2-induced cAMP); assay type: cell-based
Method: Compounds were categorized as AA (cAMP is less than 100 nM) and A (cAMP is more than 100 nM and less than 5000 nM) as shown in Table 99 and 100.

[1] = CRTH2 receptor binding, categorized AAAA/AAA
[2] = category of cAMP IC50, human DP1 receptor expressing Jurkut cell

Chain of CRTH2 (Q9Y5Y4 whole entry): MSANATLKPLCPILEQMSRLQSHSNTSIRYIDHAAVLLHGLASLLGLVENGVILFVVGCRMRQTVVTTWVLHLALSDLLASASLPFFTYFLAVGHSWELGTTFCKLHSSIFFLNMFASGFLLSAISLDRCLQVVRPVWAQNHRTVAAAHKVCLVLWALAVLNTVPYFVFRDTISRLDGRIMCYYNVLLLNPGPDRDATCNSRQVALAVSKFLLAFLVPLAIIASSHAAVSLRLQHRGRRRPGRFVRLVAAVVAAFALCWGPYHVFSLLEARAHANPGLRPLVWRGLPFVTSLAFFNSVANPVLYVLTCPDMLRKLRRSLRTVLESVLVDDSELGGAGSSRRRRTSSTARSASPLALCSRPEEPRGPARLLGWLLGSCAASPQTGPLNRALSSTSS
Chain of Human DP1 receptor (Q13258 whole entry): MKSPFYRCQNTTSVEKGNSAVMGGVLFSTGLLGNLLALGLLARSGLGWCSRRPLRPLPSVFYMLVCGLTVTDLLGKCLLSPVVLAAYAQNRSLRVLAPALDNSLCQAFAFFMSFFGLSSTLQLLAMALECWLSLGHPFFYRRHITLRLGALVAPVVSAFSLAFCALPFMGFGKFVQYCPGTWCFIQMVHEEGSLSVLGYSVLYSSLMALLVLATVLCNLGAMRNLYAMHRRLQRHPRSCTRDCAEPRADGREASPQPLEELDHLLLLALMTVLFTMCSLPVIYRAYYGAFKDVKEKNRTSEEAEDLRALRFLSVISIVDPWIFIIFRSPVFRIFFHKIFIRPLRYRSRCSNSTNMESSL

Ki (CRTH2; [1]) [nM]	IC50 (Human DP1 receptor; [2]) [nM]	Ki (CRTH2) [nM]	IC50 (Human DP1 receptor; IC50 of PGD2 (60 nM)-induced cAMP increase, human DP1 receptor expressing Jurkut cell) [nM]	SMILES
< 100	< 100	–	–	C[C@@H]1CN(S(=O)(=O)c2ccc(OC(F)(F)F)cc2)C[C@@H]1n1nc(CC(=O)O)c2ccccc21 [Compound I-242]
100 to 5000	< 100	–	–	CCc1ccc(S(=O)(=O)N2C[C@@H](C)[C@@H](n3nc(CC(=O)O)c4ccccc43)C2)cc1 [Compound I-243]
< 100	< 100	–	–	COc1ccc(S(=O)(=O)N2C[C@@H](C)[C@@H](n3nc(CC(=O)O)c4ccccc43)C2)c(F)c1 [Compound I-244]
< 100	100 to 5000	–	–	COc1ccc(S(=O)(=O)N2C[C@@H](C)[C@@H](n3nc(CC(=O)O)c4ccccc43)C2)nc1 [Compound I-246]
< 100	100 to 5000	15	–	CCOc1ccc(S(=O)(=O)N2C[C@@H](C)[C@@H](n3nc(CC(=O)O)c4ccccc43)C2)nc1 [Compound I-247]
< 100	100 to 5000	–	–	CC(C)Oc1ccc(S(=O)(=O)N2C[C@@H](C)[C@@H](n3nc(CC(=O)O)c4ccccc43)C2)nc1 [Compound I-248]
< 100	100 to 5000	–	–	Cc1ccc2c(CC(=O)O)nn([C@H]3CN(S(=O)(=O)C4CC4C(C)C)C[C@H]3C)c2c1 (some centres unmarked) [Compound I-249]
100 to 5000	< 100	–	–	Cc1cccc2c1c(CC(=O)O)nn2[C@H]1CN(S(=O)(=O)c2ccc(OC(C)C)cc2)C[C@H]1C [Compound I-250]
< 100	< 100	–	–	C[C@@H]1CN(S(=O)(=O)c2ccc(OC(F)F)cc2)C[C@@H]1n1nc(CC(=O)O)c2cc(F)ccc21 [Compound I-251]
< 100	< 100	–	–	CCOc1ccc(S(=O)(=O)N2C[C@@H](C)[C@@H](n3nc(CC(=O)O)c4cc(F)ccc43)C2)cc1 [Compound I-252]
100 to 5000	100 to 5000	–	–	COCCOCCOc1ccc(S(=O)(=O)N2C[C@@H](C)[C@@H](n3nc(CC(=O)O)c4ccccc43)C2)cc1 [Compound I-253]
< 100	< 100	–	–	CCOc1ccc(S(=O)(=O)N2C[C@@H](C)[C@@H](n3nc(CC(=O)O)c4ccccc43)C2)c(CF)c1 [Compound I-258]
< 100	100 to 5000	–	–	CCOc1ccc(S(=O)(=O)N2C[C@@H](C)[C@@H](n3nc(CC(=O)O)c4ccccc43)C2)c(CNC(C)=O)c1 [Compound I-259]
< 100	100 to 5000	21	–	CCOc1ccc(S(=O)(=O)N2C[C@@H](C)[C@@H](n3nc(CC(=O)O)c4ccccc43)C2)c(CCCNC(C)=O)c1 [Compound I-260]
100 to 5000	100 to 5000	–	–	CCOc1ccc(S(=O)(=O)N2C[C@@H](C)[C@@H](n3nc(CC(=O)O)c4ccccc43)C2)c(OC)c1 [Compound I-261]
100 to 5000	< 100	–	–	CC(C)Oc1ccc(S(=O)(=O)N2C[C@@H](C)[C@@H](n3nc(CC(=O)O)c4cc(C#N)ccc43)C2)cc1 [Compound I-262]
< 100	< 100	–	–	CC(C)Oc1ccc(S(=O)(=O)N2C[C@@H](C)[C@@H](n3nc(CC(=O)O)c4c(F)cccc43)C2)cc1 [Compound I-263]
< 100	< 100	–	–	[2H]c1ccc2c(c1)c(CC(=O)O)nn2[C@H]1CN(S(=O)(=O)c2ccc(OCC)cc2)C[C@H]1C [Compound I-264]
< 100	< 100	–	–	CCOc1ccc(S(=O)(=O)N2C[C@@H](C)[C@@H](n3nc(CC(=O)O)c4cc(C)ccc43)C2)cn1 [Compound I-265]
100 to 5000	100 to 5000	–	–	C[C@@H]1CN(S(=O)(=O)C2CCCCC2)C[C@@H]1n1nc(CC(=O)O)c2ccccc21 [Compound I-266]

Ki (CRTH2; [1]) [nM]	IC50 (Human DP1 receptor; [2]) [nM]	Ki (CRTH2) [nM]	IC50 (Human DP1 receptor; IC50 of PGD2 (60 nM)-induced cAMP increase, human DP1 receptor expressing Jurkut cell) [nM]	SMILES
100 to 5000	< 100	–	–	COc1ccc2c(c1)c(CC(=O)O)nn2[C@H]1CN(S(=O)(=O)c2ccc(OC(C)C)cc2)C[C@H]1C [Compound I-267]
< 100	< 100	–	–	Cc1ccc2c(c1)c(CC(=O)O)nn2[C@H]1CN(S(=O)(=O)c2ccc(OCF)cc2)C[C@H]1C [Compound I-268]
< 100	< 100	–	–	C[C@@H]1CN(S(=O)(=O)c2ccc(OCF)cc2)C[C@@H]1n1nc(CC(=O)O)c2ccc(F)cc21 [Compound I-269]
< 100	< 100	–	–	C[C@@H]1CN(S(=O)(=O)c2ccc(OCF)cc2)C[C@@H]1n1nc(CC(=O)O)c2ccccc21 [Compound I-270]
< 100	< 100	–	–	CCOc1ccc(S(=O)(=O)N2C[C@@H](C)[C@@H](n3cc(CC(=O)O)c4ccc(C)cc43)C2)cc1 [Compound I-271]
< 100	< 100	–	–	CCOc1ccc(S(=O)(=O)N2C[C@@H](C)[C@@H](n3cc(CC(=O)O)c4ccc(C)cc43)C2)cn1 [Compound I-272]
100 to 5000	100 to 5000	–	–	CCOCCCOc1ccc(S(=O)(=O)N2C[C@@H](C)[C@@H](n3nc(CC(=O)O)c4ccccc43)C2)cc1 [Compound I-273]
< 100	100 to 5000	–	–	COCCCOc1ccc(S(=O)(=O)N2C[C@@H](C)[C@@H](n3nc(CC(=O)O)c4ccccc43)C2)cc1 [Compound I-274]
100 to 5000	100 to 5000	–	–	CCOc1ccc(S(=O)(=O)N2C[C@H](n3nc(CC(=O)O)c4ccccc43)C[C@@H]2CF)cn1 [Compound I-275]
< 100	< 100	–	–	C=Cc1cc(OCC)ccc1S(=O)(=O)N1C[C@@H](C)[C@@H](n2nc(CC(=O)O)c3ccccc32)C1 [Compound I-276]
< 100	< 100	–	–	CCOc1ccc(S(=O)(=O)N2C[C@@H](C)[C@@H](n3nc(CC(=O)O)c4ccccc43)C2)c(CO)c1 [Compound I-277]
< 100	100 to 5000	–	–	C#Cc1cc(OCC)ccc1S(=O)(=O)N1C[C@@H](C)[C@@H](n2nc(CC(=O)O)c3ccccc32)C1 [Compound I-278]
< 100	100 to 5000	–	–	CCOc1ccc(S(=O)(=O)N2C[C@@H](C)[C@@H](n3nc(CC(=O)O)c4ccccc43)C2)c(/C=C/CO)c1 [Compound I-279]
< 100	100 to 5000	7.8	–	CCOc1ccc(S(=O)(=O)N2C[C@@H](C)[C@@H](n3nc(CC(=O)O)c4ccccc43)C2)c(CCCO)c1 [Compound I-280]
< 100	100 to 5000	10	–	CCOc1ccc(S(=O)(=O)N2C[C@@H](C)[C@@H](n3cc(CC(=O)O)c4ccc(-c5ncco5)cc43)C2)cc1 [Compound I-282]
100 to 5000	< 100	–	–	CCOc1ccc(S(=O)(=O)N2C[C@@H](C)[C@@H](n3nc(C(C)(O)C(=O)O)c4ccccc43)C2)cc1 (some centres unmarked) [Compound I-283]
100 to 5000	100 to 5000	–	–	CCOc1ccc(S(=O)(=O)N2C[C@@H](C)[C@@H](n3nc(C(C)(OC)C(=O)O)c4ccccc43)C2)cc1 (some centres unmarked) [Compound I-285]
< 100	100 to 5000	40	100	Cc1ccc(S(=O)(=O)N2C[C@@H](C)[C@@H](n3c(C)c(CC(=O)O)c4ccccc43)C2)cc1 [Compound I-288]
100 to 5000	100 to 5000	–	–	CC(C)Oc1ccc(S(=O)(=O)N2C[C@H](n3nc(CC(=O)O)c4ccc(F)cc43)C[C@@H]2COCCCOc2ccccc2)cc1 [Compound I-289]
100 to 5000	< 100	–	–	CCOc1ccc(S(=O)(=O)N2C[C@@H](C)[C@@H](n3nc(C(F)(F)C(=O)O)c4ccccc43)C2)cc1 [Compound I-290]

— patent US9725442B2, “Heterocyclic derivative having PGD2 receptor antagonist activity” (Shionogi & Co., Ltd., priority 2011, dated 2017)
